The values that follow come from US20240238268A1, “TREATMENTS AND METHODS FOR TREATING ALZHEIMER'S DISEASE” (Board of Supervisors of Louisiana State University and …, priority 2021, published 2024).

Structures are written as SMILES.

In test [1] the test system is methylation of H3 (1-25) and MED12. The settings on record: in cell; cited from earlier work.
For another test, the system named is eNOS. Kind of test: eNOS protein level in brain, capillary-phoresis. Format: in vivo, mouse. The settings on record: treated 3xTg-AD mice; control = 100%. An excerpt:
Capillary-phoresis immunoassay via ProteinSimple®: Quantification of all protein targets was achieved using Simple Western analysis in a Jess™ apparatus per the manufacturer's protocol (ProteinSimple, Bio-techne, Minneapolis, MN). Protein was extracted from dissected tissue in an extraction buffer consisting of T-PER® Tissue Protein Extraction Reagent (Cat. No. 78510, Thermo Fischer Scientific, Waltham, MA) and Halt™ Protease Inhibitor Cocktail (Cat. No. 87785, Thermo Fischer Scientific, Waltham, MA). Following homogenization and centrifugation (10,000×g, 5 min, 4° C.), protein concentration was determined in tissue protein supernatant samples using DC Protein Assay (Cat. No. 5000112, Bio-Rad Laboratories, Hercules, California) according to manufacturer instructions. […] Antibody diluent (ProteinSimple, Bio-techne, Minneapolis, MN) was used for all antibody dilutions as follows: PRMT4 (1:50, RRID: AB_2068436), PRMT6 (1:100, Cell Signaling Technology cat. 14641), eNOS (1:200, RRID: AB_10850618), nNOS (1:100, RRID: AB_2152488), iNOS (1:100, RRID: AB_10000625), DDAH2 (1:50, RRID: AB_2640442) Antibodies were detected using HRP-conjugated secondary anti-rabbit, and -mouse. Relative protein levels were calculated by measuring the area under the peak of a chemiluminescent chromatogram and normalized to total capillary chemiluminescence for a given sample. […]

Another test concerns aged 3xTg-AD female mice. Kind of test: Neurovascular coupling: microvessel diameter after whisker stimulation, two-photon laser scanning microscopy. The class given is in vivo, mouse. The settings on record: TP-064 30 mg/kg for 7 days, IP or PRMT4-AAV knockdown. As to the method: FIGS. 11A-11D show neurovascular coupling dysfunction was alleviated with specific PRMT4 inhibitor (TP-064) or PRMT4-AAV knockdown in aged 3xTg-AD female mice. In FIG. 11A, neurovascular coupling was evaluated based on vascular tonicity changes in response to whisker stimulation (30 sec, 4 Hz) via two-photon laser scanning microscopy. FITC-dextran was injected IV for visualization of cerebral microvessels (Z=100 μm depth) in the cortex. In FIG. 11B, vessel diameters were measured before/after whisker stimulation, and before/after TP-064 (30 mg/kg for 7 days, IP) or PRMT4-AAV knockdown.
Determining if inhibition of PRMT4 can promote neurovascular coupling. […] One reason for this is the loss of neurovascular coupling is associated with the early progression of AD. Whisker-barrel stimulation is a well-established model for examining neurovascular coupling [Rodgers (our in-house collaborator) et al., 2006, 2008, 2009]. The inventors measured cortical microvessel vascular reactivity with two-photon laser scanning microscopy while evoking 30 sec of whisker stimulation in mice. Based on the inventors' findings that aged 3xTg-AD female mice had enhanced PRMT4 expression (FIGS. 2A-3C and 5A-5D), the inventors' results evidence that aged 3xTg-AD female mice presented decreased cortical microvessel diameter as compared to aged 3xTg-AD male mice 30 see (4 Hz) after whisker stimulation. […]

Take `CNCCN1CCC(c2cc(CN(C)C(=O)c3cccc(Oc4ccccc4)c3)ccn2)CC1` [TP-064, N-Methyl-N-((2-(1-(2-(methylamino)ethyl)piperidin-4-yl)pyridin-4-yl)methyl)-3-phenoxybenzamide]: the “methylation of H3 (1-25) and MED12” value in test [1] is on record as “inhibits”. Also, in the test on eNOS, the “eNOS level in cortical lysates” value was 94.0%±25.6 and the “eNOS level in hippocampal lysates” value is recorded as 69.5%±2.71. For the same compound, the “microvessel diameter after whisker stimulation” value in the test on aged 3xTg-AD female mice is given as “increased”.
